Assay results from patent publication US8133884B2, “Compounds for the treatment of hepatitis C” (priority 2008, dated 2012).
pIC50: −log10 of the molar value.

molecular target: T1, HCV NS5B (Hepatitis C virus genotype 1b, UniProt Q9WMX2); test: Modified HCV NS5B RdRp enzyme assay (preincubation protocol); type: biochemical; conditions: class symbol
T1 construct: The protein was expressed with an 18 amino acid C-terminal truncation to enhance the solubility; made in house; host or cells: E. coli BL21(DE3)
Method: The cDNA encoding the NS5B protein of HCV, genotype 1b, was cloned into the pET21a expression vector. The protein was expressed with an 18 amino acid C-terminal truncation to enhance the solubility. The E. coli competent cell line BL21(DE3) was used for expression of the protein. Cultures were grown at 37° C. for ˜4 hours until the cultures reached an optical density of 2.0 at 600 nm. The cultures were cooled to 20° C. and induced with 1 mM IPTG. Fresh ampicillin was added to a final concentration of 50 μg/ml and the cells were grown overnight at 20° C.
Cell pellets (3 L) were lysed for purification to yield 15-24 mgs of purified NS5B. The lysis buffer consisted of 20 mM Tris-HCl, pH 7.4, 500 mM NaCl, 0.5% triton X-100, 1 mM DTT, 1 mM EDTA, 20% glycerol, 0.5 mg/ml lysozyme, 10 mM MgCl2, 15 ug/ml deoxyribonuclease I, and Complete TM protease inhibitor tablets (Roche). After addition of the lysis buffer, frozen cell pellets were resuspended using a tissue homogenizer. To reduce the viscosity of the sample, aliquots of the lysate were sonicated on ice using a microtip attached to a Branson sonicator. The sonicated lysate was centrifuged at 100,000×g for 1 hr at 4° C. and filtered through a 0.2 μm filter unit (Corning).
The protein was purified using three sequential chromatography steps: Heparin sepharose CL-6B, polyU sepharose 4B, and […] SP sepharose (Pharmacia). The chromatography buffers were identical to the lysis buffer but contained no lysozyme, deoxyribonuclease I, MgCl2 or protease inhibitor and the NaCl concentration of the buffer was adjusted according to the requirements for charging the protein onto the column. Each column was eluted with a NaCl gradient which varied in length from 5-50 column volumes depending on the column type. After the final chromatography step, the resulting purity of the enzyme is >90% based on SDS-PAGE analysis. The enzyme was aliquoted and stored at −80° C.
HCV RdRp genotype 1b assays were run in a final volume of 60 μl in 96 well plates (Costar 3912). The assay buffer is composed of 20 mM Hepes, pH 7.5, 2.5 mM KCl, 2.5 mM MgCl2, 1 mM DTT, 1.6 U RNAse inhibitor (Promega N2515), 0.1 mg/ml BSA (Promega R3961), and 2% glycerol. All compounds were serially diluted (3-fold) in DMSO and diluted further in water such that the final concentration of DMSO in the assay was 2%. HCV RdRp genotype 1b enzyme was used at a final concentration of 28 nM. A polyA template was used at 6 nM, and a biotinylated oligo-dT12 primer was used at 180 nM final concentration. Template was obtained commercially (Amersham 27-4110). Biotinylated primer was prepared by Sigma Genosys. 3H-UTP was used at 0.6 μCi (0.29 μM total UTP). Reactions were initiated by the addition of enzyme, incubated at 30° C. for 60 min, and stopped by adding 25 μl of 50 mM EDTA containing SPA beads (4 μg/μl, Amersham RPNQ 0007). Plates were read on a Packard TOPCOUNT® NXT after >1 hr incubation at room temperature.
A modified enzyme assay was performed essentially as described for the standard enzyme assay except for the following: The biotinylated oligo dT12 primer was precaptured on streptavidin-coated SPA beads by mixing primer and beads in assay buffer and incubating at room temperature for one hour. Unbound primer was removed after centrifugation. The primer-bound beads were resuspended in 20 mM Hepes buffer, pH 7.5 and used in the assay at final concentrations of 20 nM primer and 0.67 μg/μl beads. Order of addition in the assay: enzyme (14 nM) was added to diluted compound followed by the addition of a mixture of template (0.2 nM), 3H-UTP (0.6 μCi, 0.29 μM), and primer-bound beads, to initiate the reaction; concentrations given are final. Reactions were allowed to proceed for 4 hours at 30° C.
IC50 values for compounds were determined using seven different [I]. IC50 values were calculated from the inhibition using the formula y=A+((B−A)/(1+((C/x)^D))).

T1 sequence (Q9WMX2 2420-2992): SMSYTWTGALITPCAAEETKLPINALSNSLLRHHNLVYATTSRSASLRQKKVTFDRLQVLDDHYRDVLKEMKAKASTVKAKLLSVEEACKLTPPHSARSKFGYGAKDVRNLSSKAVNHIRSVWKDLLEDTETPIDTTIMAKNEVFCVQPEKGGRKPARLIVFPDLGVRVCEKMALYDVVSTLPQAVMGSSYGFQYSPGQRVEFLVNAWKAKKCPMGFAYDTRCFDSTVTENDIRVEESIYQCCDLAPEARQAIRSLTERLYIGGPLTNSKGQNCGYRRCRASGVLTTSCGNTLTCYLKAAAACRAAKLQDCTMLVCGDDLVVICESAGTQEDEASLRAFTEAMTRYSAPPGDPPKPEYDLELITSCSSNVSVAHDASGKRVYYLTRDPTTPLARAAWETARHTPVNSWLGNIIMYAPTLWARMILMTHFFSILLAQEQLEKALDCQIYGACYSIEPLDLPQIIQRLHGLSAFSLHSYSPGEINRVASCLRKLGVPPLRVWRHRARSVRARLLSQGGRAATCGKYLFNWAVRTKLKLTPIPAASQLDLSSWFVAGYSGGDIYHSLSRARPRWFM

First: CCOC(=O)c1cnn(C2CCC2)c1C1=Cc2cc(OC)ccc2-c2c(C3CCCCC3)c3ccc(C(=O)OC(C)(C)C)cc3n2C1
Second: CCOC(=O)c1cnn(C2CCC2)c1C1=Cc2cc(OC)ccc2-c2c(C3CCCCC3)c3ccc(C(=O)NS(=O)(=O)C(C)C)cc3n2C1
The pIC50 of the first is lower: under 6.30 for the first, 6.30 to 8.77 for the second.

`COc1ccc2c(c1)C=C(c1c(C(=O)O)cnn1C1CCC1)Cn1c-2c(C2CCCCC2)c2ccc(C(=O)NS(=O)(=O)CC(C)C)cc21` and `COc1ccc2c(c1)C=C(c1c(C(=O)O)cnn1C1CCC1)Cn1c-2c(C2CCCCC2)c2ccc(C(=O)NS(=O)(=O)C(C)C)cc21` fall in the same range of pIC50: 6.30 to 8.77 for the first, 6.30 to 8.77 for the second.

`CCOC(=O)c1cnn(C2CCC2)c1C1=Cc2cc(OC)ccc2-c2c(C3CCCCC3)c3ccc(C(=O)NS(=O)(=O)CC(C)C)cc3n2C1` and `CCOC(=O)c1cnn(C2CCOCC2)c1C1=Cc2cc(OC)ccc2-c2c(C3CCCCC3)c3ccc(C(=O)NS(=O)(=O)CC(C)C)cc3n2C1` fall in the same range of pIC50: 6.30 to 8.77 for the first, 6.30 to 8.77 for the second.

`CCOC(=O)c1cnn(C2CCOCC2)c1C1=Cc2cc(OC)ccc2-c2c(C3CCCCC3)c3ccc(C(=O)O)cc3n2C1` and `CCOC(=O)c1cnn(C2CCOCC2)c1C1=Cc2cc(OC)ccc2-c2c(C3CCCCC3)c3ccc(C(=O)NS(=O)(=O)C(C)C)cc3n2C1` fall in the same range of pIC50: 6.30 to 8.77 for the first, 6.30 to 8.77 for the second.

`COc1ccc2c(c1)C=C(c1c(C(=O)O)cnn1C1CCOCC1)Cn1c-2c(C2CCCCC2)c2ccc(C(=O)NS(=O)(=O)C(C)C)cc21` and `COc1ccc2c(c1)C=C(c1c(C(=O)O)cnn1C1CCOCC1)Cn1c-2c(C2CCCCC2)c2ccc(C(=O)NS(=O)(=O)CC(C)C)cc21` fall in the same range of pIC50: 6.30 to 8.77 for the first, 6.30 to 8.77 for the second.

`COc1ccc2c(c1)C=C(c1c(C(=O)N3CCCN(C)CC3)cnn1C1CCC1)Cn1c-2c(C2CCCCC2)c2ccc(C(=O)NS(=O)(=O)C(C)C)cc21` and `CCN1CC2CC1CN2C(=O)c1c(C2=Cc3cc(OC)ccc3-c3c(C4CCCCC4)c4ccc(C(=O)NS(=O)(=O)C(C)C)cc4n3C2)ncn1C1CC1` (stereo not drawn) fall in the same range of pIC50: 6.30 to 8.77 for the first, 6.30 to 8.77 for the second.
